# Measured values published in patent publication US8741836B2, “Polypeptides” (Novo Nordisk A/S, priority 2011, dated 2014).
# Starred links: 1 amine or outer side, 2 acyl side, 3 side chain; linkers in the order of their positions; H or OH if unused. Positions of bridges follow the written chain, without caps; N, C: chain ends. Residues, ends and D or L forms follow the SMILES beside them. *: point of attachment. C20 diacid = O=C(O)CCCCCCCCCCCCCCCCCCC(=O)*; γGlu = O=C(O)[C@H](CCC(=O)[*:2])N[*:1]
# Assay: Assay (III) ThT fibrillation assay for physical stability
# Type: physicochemical
# Details: pH 4.0, ThT fibrillation assay
# Source text: Assay (III)—ThT Fibrillation Assays for the Assessment of Physical Stability of Protein formulations Low physical stability of a polypeptide may lead to amyloid fibril formation, which is observed as well-ordered, thread-like macromolecular structures in the sample eventually resulting in gel formation. This has traditionally been measured by visual inspection of the sample. However, that kind of measurement is very subjective and depending on the observer. Therefore, the application of a small molecule indicator probe is much more advantageous. Thioflavin T (ThT) is such a probe and has a distinct fluorescence signature when binding to fibrils [Naiki et al. (1989) Anal. Biochem. 177, 244-249; LeVine (1999) Methods. Enzymol. […], 274-284]. The time course for fibril formation can be described by a sigmoidal curve with the following expression [Nielsen et al. (2001) Biochemistry 40, 6036-6046]: [formula] Here, F is the ThT fluorescence at the time t. The constant t0 is the time needed to reach 50% of maximum fluorescence. […] Few of those intermediates nucleate to form a template onto which further intermediates may assembly and the fibrillation proceeds. The lag-time corresponds to the interval in which the critical mass of nucleus is built up and the apparent rate constant is the rate with which the fibril itself is formed. Sample Preparation Samples were prepared freshly before each assay. Each sample composition is described in each example. The pH of the sample was adjusted to the desired value using appropriate amounts of concentrated NaOH and HClO4 or HCl. Thioflavin T was added to the samples from a stock solution in H2O to a final concentration of 1 μM. Sample aliquots of 200 μl were placed in a 96 well microtiter plate (Packard OptiPlate™-96, white polystyrene). Usually, four or eight replica of each sample (corresponding to one test condition) were placed in one column of wells. The plate was sealed with Scotch Pad (Qiagen). Incubation and Fluorescence Measurement Incubation at given temperature, shaking and measurement of the ThT fluorescence emission were done in a Fluoroskan Ascent FL fluorescence platereader or Varioskan platereader (Thermo Labsystems). The temperature was adjusted to 37° C. The orbital shaking was adjusted to 960 rpm with an amplitude of 1 mm in all the presented data. Fluorescence measurement was done using excitation through a 444 nm filter and measurement of emission through a 485 nm filter. Each run was initiated by incubating the plate at the assay temperature for 10 min. The plate was measured every 20 minutes for a desired period of time. Between each measurement, the plate was shaken and heated as described. Data Handling The measurement points were saved in Microsoft Excel format for further processing and curve drawing and fitting was performed using GraphPad Prism. The background emission from ThT in the absence of fibrils was negligible. The data points are typically a mean of four or eight samples and shown with standard deviation error bars. Only data obtained in the same experiment (i.e. samples on the same plate) are presented in the same graph ensuring a relative measure of fibrillation between experiments. The data set may be fitted to Eq. (1). However, since full sigmodial curves in this case are not always achieved during the measurement time, the degree of fibrillation is expressed as ThT fluorescence tabulated as the mean of the samples and shown with the standard deviation at various time points. Measurement of Initial and Final Concentrations The polypeptide concentration in each of the tested formulations were measured both before application in the ThT fibrillation assay (“Initial”) and after completion of the ThT fibrillation (“After ThT assay”). Concentrations were determined by reverse HPLC methods using a pramlintide standard as a reference. Before measurement after completion 150 μl was collected from each of the replica and transferred to an Eppendorf tube. […]
row,Compound,ThT pH 4.0 lag time
1,"CC[C@H](C)[C@H](NC(=O)[C@@H]1CCCN1C(=O)CNC(=O)[C@H](Cc1ccccc1)NC(=O)[C@H](CC(N)=O)NC(=O)[C@H](CC(N)=O)NC(=O)[C@H](CO)NC(=O)[C@H](CO)NC(=O)[C@H](Cc1c[nH]cn1)NC(=O)[C@H](Cc1c[nH]cn1)NC(=O)[C@H](CC(C)C)NC(=O)[C@H](Cc1ccccc1)NC(=O)[C@H](CCC(=O)O)NC(=O)[C@H](C)NC(=O)[C@H](CC(C)C)NC(=O)[C@H](CCCNC(=N)N)NC(=O)[C@H](CCC(N)=O)NC(=O)[C@@H](NC(=O)[C@H](C)NC(=O)[C@@H]1CSSC[C@H](NC(=O)[C@H](CCCCN)NC(=O)[C@H](Cc2c[nH]cn2)NC(=O)CC[C@H](NC(=O)CCCCCCCCCCCCCCCCCCC(=O)O)C(=O)O)C(=O)N[C@@H](CC(N)=O)C(=O)N[C@@H]([C@@H](C)O)C(=O)N[C@@H](C)C(=O)N[C@@H]([C@@H](C)O)C(=O)N1)[C@@H](C)O)C(=O)N[C@@H](CC(C)C)C(=O)N1CCC[C@H]1C(=O)N1CCC[C@H]1C(=O)N[C@H](C(=O)N[C@@H](CC(N)=O)C(=O)N[C@H](C(=O)NCC(=O)N[C@@H](CO)C(=O)N[C@@H](Cc1c[nH]cn1)C(=O)N[C@H](C(=O)N[C@@H](Cc1ccc(O)cc1)C(N)=O)[C@@H](C)O)C(C)C)[C@@H](C)O [Example 66, N-alpha-[(S)-4-Carboxy-4-(19-carboxynonadecanoylamino)butyryl]-His-[Glu14,His17,His35]-pramlintide] ({C20 diacid-γGlu}-HKCNTATCATQRLAEFLHHSSNNFGPILPPTNVGSHTY-NH2; disulfide 3-8)",>45 h
2,"CC[C@H](C)[C@H](NC(=O)[C@@H]1CCCN1C(=O)CNC(=O)[C@H](Cc1ccccc1)NC(=O)[C@H](CC(N)=O)NC(=O)[C@H](CC(N)=O)NC(=O)[C@H](CO)NC(=O)[C@H](CO)NC(=O)[C@H](Cc1c[nH]cn1)NC(=O)[C@H](CCCNC(=N)N)NC(=O)[C@H](CC(C)C)NC(=O)[C@H](Cc1ccccc1)NC(=O)[C@H](CCC(=O)O)NC(=O)[C@H](C)NC(=O)[C@H](CC(C)C)NC(=O)[C@H](CCCNC(=N)N)NC(=O)[C@H](CCC(N)=O)NC(=O)[C@@H](NC(=O)[C@H](C)NC(=O)[C@@H]1CSSC[C@H](NC(=O)[C@H](CCCCN)NC(=O)[C@H](Cc2c[nH]cn2)NC(=O)CC[C@H](NC(=O)CCCCCCCCCCCCCCCCCCC(=O)O)C(=O)O)C(=O)N[C@@H](CC(N)=O)C(=O)N[C@@H]([C@@H](C)O)C(=O)N[C@@H](C)C(=O)N[C@@H]([C@@H](C)O)C(=O)N1)[C@@H](C)O)C(=O)N[C@@H](CC(C)C)C(=O)N1CCC[C@H]1C(=O)N1CCC[C@H]1C(=O)N[C@H](C(=O)N[C@@H](CC(N)=O)C(=O)N[C@H](C(=O)NCC(=O)N[C@@H](CO)C(=O)N[C@@H](Cc1c[nH]cn1)C(=O)N[C@H](C(=O)N[C@@H](Cc1ccc(O)cc1)C(N)=O)[C@@H](C)O)C(C)C)[C@@H](C)O [Example 68, N-alpha-[(S)-4-Carboxy-4-(19-carboxynonadecanoylamino)butyryl]-His-[Glu14,Arg17,His35]-pramlintide] ({C20 diacid-γGlu}-HKCNTATCATQRLAEFLRHSSNNFGPILPPTNVGSHTY-NH2; disulfide 3-8 (inferred); C-terminus assumed)",>45 h

# Second part, the molecule after the results:
row,ThT pH 4.0 lag time,Compound
1,>45 h,"CC[C@H](C)[C@H](NC(=O)[C@@H]1CCCN1C(=O)CNC(=O)[C@H](Cc1ccccc1)NC(=O)[C@H](CC(N)=O)NC(=O)[C@H](CC(N)=O)NC(=O)[C@H](CO)NC(=O)[C@H](CO)NC(=O)[C@H](CCCNC(=N)N)NC(=O)[C@H](Cc1c[nH]cn1)NC(=O)[C@H](CC(C)C)NC(=O)[C@H](Cc1ccccc1)NC(=O)[C@H](CCC(=O)O)NC(=O)[C@H](C)NC(=O)[C@H](CC(C)C)NC(=O)[C@H](CCCNC(=N)N)NC(=O)[C@H](CCC(N)=O)NC(=O)[C@@H](NC(=O)[C@H](C)NC(=O)[C@@H]1CSSC[C@H](NC(=O)[C@H](Cc2c[nH]cn2)NC(=O)CC[C@H](NC(=O)CCCCCCCCCCCCCCCCCCC(=O)O)C(=O)O)C(=O)N[C@@H](CC(N)=O)C(=O)N[C@@H]([C@@H](C)O)C(=O)N[C@@H](C)C(=O)N[C@@H]([C@@H](C)O)C(=O)N1)[C@@H](C)O)C(=O)N[C@@H](CC(C)C)C(=O)N1CCC[C@H]1C(=O)N1CCC[C@H]1C(=O)N[C@H](C(=O)N[C@@H](CC(N)=O)C(=O)N[C@H](C(=O)NCC(=O)N[C@@H](CO)C(=O)N[C@@H](Cc1c[nH]cn1)C(=O)N[C@H](C(=O)N[C@@H](Cc1ccc(O)cc1)C(N)=O)[C@@H](C)O)C(C)C)[C@@H](C)O [Example 77, N-alpha-[(S)-4-Carboxy-4-(19-carboxynonadecanoylamino)butyryl]-[His1,Glu14,His17,Arg18,His35]-pramlintide] ({C20 diacid-γGlu}-HCNTATCATQRLAEFLHRSSNNFGPILPPTNVGSHTY-NH2; disulfide 2-7 (inferred))"
2,28 h,"CC[C@H](C)[C@H](NC(=O)[C@@H]1CCCN1C(=O)CNC(=O)[C@H](Cc1ccccc1)NC(=O)[C@H](CC(N)=O)NC(=O)[C@H](CC(N)=O)NC(=O)[C@H](CO)NC(=O)[C@H](CO)NC(=O)[C@H](Cc1c[nH]cn1)NC(=O)[C@H](Cc1c[nH]cn1)NC(=O)[C@H](CC(C)C)NC(=O)[C@H](Cc1ccccc1)NC(=O)[C@H](CCC(=O)O)NC(=O)[C@H](C)NC(=O)[C@H](CC(C)C)NC(=O)[C@H](CCCNC(=N)N)NC(=O)[C@H](CCC(N)=O)NC(=O)[C@@H](NC(=O)[C@H](C)NC(=O)[C@@H]1CSSC[C@H](NC(=O)CC[C@H](NC(=O)CCCCCCCCCCCCCCCCCCC(=O)O)C(=O)O)C(=O)N[C@@H](CC(N)=O)C(=O)N[C@@H]([C@@H](C)O)C(=O)N[C@@H](C)C(=O)N[C@@H]([C@@H](C)O)C(=O)N1)[C@@H](C)O)C(=O)N[C@@H](CC(C)C)C(=O)N1CCC[C@H]1C(=O)N1CCC[C@H]1C(=O)N[C@H](C(=O)N[C@@H](CC(N)=O)C(=O)N[C@H](C(=O)NCC(=O)N[C@@H](CO)C(=O)N[C@@H](Cc1c[nH]cn1)C(=O)N[C@H](C(=O)N[C@@H](Cc1ccc(O)cc1)C(N)=O)[C@@H](C)O)C(C)C)[C@@H](C)O [Example 75, N-alpha-[(S)-4-Carboxy-4-(19-carboxynonadecanoylamino)butyryl]-[des1,Glu14,His17,His35]-pramlintide] ({C20 diacid-γGlu}-CNTATCATQRLAEFLHHSSNNFGPILPPTNVGSHTY-NH2; disulfide 1-6)"
3,26 h,"CC[C@H](C)[C@H](NC(=O)[C@@H]1CCCN1C(=O)CNC(=O)[C@H](Cc1ccccc1)NC(=O)[C@H](CC(N)=O)NC(=O)[C@H](CC(N)=O)NC(=O)[C@H](CO)NC(=O)[C@H](CO)NC(=O)[C@H](Cc1c[nH]cn1)NC(=O)[C@H](Cc1c[nH]cn1)NC(=O)[C@H](CC(C)C)NC(=O)[C@H](Cc1ccccc1)NC(=O)[C@H](CCC(=O)O)NC(=O)[C@H](C)NC(=O)[C@H](CC(C)C)NC(=O)[C@H](CCCNC(=N)N)NC(=O)[C@H](CCC(N)=O)NC(=O)[C@@H](NC(=O)[C@H](C)NC(=O)[C@@H]1CSSC[C@H](NC(=O)CNC(=O)CC[C@H](NC(=O)CCCCCCCCCCCCCCCCCCC(=O)O)C(=O)O)C(=O)N[C@@H](CC(N)=O)C(=O)N[C@@H]([C@@H](C)O)C(=O)N[C@@H](C)C(=O)N[C@@H]([C@@H](C)O)C(=O)N1)[C@@H](C)O)C(=O)N[C@@H](CC(C)C)C(=O)N1CCC[C@H]1C(=O)N1CCC[C@H]1C(=O)N[C@H](C(=O)N[C@@H](CC(N)=O)C(=O)N[C@H](C(=O)NCC(=O)N[C@@H](CO)C(=O)N[C@@H](Cc1c[nH]cn1)C(=O)N[C@H](C(=O)N[C@@H](Cc1ccc(O)cc1)C(N)=O)[C@@H](C)O)C(C)C)[C@@H](C)O [Example 105, N-alpha-[(S)-4-Carboxy-4-(19-carboxynonadecanoylamino)butyryl]-[Gly1,Glu14,His17,His35]-pramlintide] ({C20 diacid-γGlu}-GCNTATCATQRLAEFLHHSSNNFGPILPPTNVGSHTY-NH2; disulfide 2-7)"
